Data reported in US5866576A, “Epoxide-containing compounds” (Cell Therapeutics, Inc., priority 1997, dated 1999).

Experiments:
Balb/3T3 cells [1] = experiment: Balb/3T3 cytotoxicity assay (BCECF-AM); type: cell-based; conditions: FIGS. 8C, 8D
Procedure: In conjuction with the Balb/3T3 proliferation assay conducted above, a Balb/3T3 cytotoxicity assay was conducted to determine that the inhibition on proliferation was not due to cytotoxic effects. This assay is similar to the assay decribed above except tritiated thymidine was not added and after 18-24 hours incubation with PDGF/BB and a lOuM solution of 2,7-bis-(2-carboxyethyl)-5(and-6)carboxyflouresceinacetoxymethyl ester (BCECF-AM) was added for 30 minutes at 37° C. (BCECF is a compound that when cleaved by esterases, yields a fluorescent product in viable cells only, therefore providing a measure of viable cell numbers). Following sufficient incubation, BCECF is replaced with PBS and the plate examined with flourescence in a Millipore "cytofluor." The data is compiled and plotted.

Balb/3T3 cells [2] = experiment: PDGF-stimulated Balb/3T3 cell proliferation; type: cell-based; conditions: FIGS. 8A (1409), 8B (1560); PDGF/BB
Procedure: Balb/3T3 cells respond vigorously to PDGF stimulation, and are useful in vitro models for further study of PDGF-induced proliferation. Disregulated PDGF-proliferative response has been linked to a variety of diseases, including, e.g., restenosis, atherosclerosis, fibrosis, and tumor cell angiogenesis.
Balb/3T3 cells were maintained in exponential growth. The cells were removed from a flask with EDTA and plated into 96 well plates at 3000 cells/well. After 48 hours, the media was removed, the cells washed once with PBS and serum free media and the cultures allowed to rest for a 24 hour period. Inventive compounds were added to the wells containing media and Balb/3T3 cells one hour prior to incubation with PDGF/BB, added at constant 10 μM concentrations along with 1 μ Ci 3-H-thymidine dye. Cells were subsequently incubated for 18-24 hours, harvested, and incorporated thymidine assessed on a Packard Topcount to determine degree of cell proliferation. Data obtained in this assay was used to determine experimental 50% inhibition concentrations for the inventive compounds tested.

[3] = tested on: vascular cell adhesion molecule-1 (VCAM) in human umbilical vein endothelial cells (HUVEC); experiment: cell surface expression of VCAM in TNF-α stimulated HUVEC, flow cytometry (FIG. 6); type: cell-based; conditions: TNF-α 20 ng/ml, 20 hrs
Procedure: The HUVEC cells were stimulated with 20 ng/ml TNF-α for 20 hrs and then stained for immunofluorescence using a monoclonal antibody recognizing VCAM, followed by a goat anti-mouse antibody conjugated to phycoerythrin. The cells were analyzed for antibody binding using flow cytometry.
This example illustrates the effects of inventive compounds nos. 1605, 1808 and 1906 to inhibit cell surface expression of vascular cell adhesion molecule-1 (VCAM) in human umbilical vein endothelial cells (HUVEC). The HUVEC cells were stimulated with 20 ng/ml TNF-α for 20 hrs and then stained for immunofluorescence using a monoclonal antibody recognizing VCAM, followed by a goat anti-mouse antibody conjugated to phycoerythrin. The cells were analyzed for antibody binding using flow cytometry.

[4] = tested on: PBMC (peripheral blood mononuclear cells); experiment: two-way mixed lymphocyte reaction, PBMC (FIG. 1); type: cell-based
Description: This example illustrates the effects of inventive compounds nos. 1605, 1808 and 1906 as immune modulators in a mixed lymphocyte reaction. […] 1605, 1808 and 1906.

thymocytes [5] = experiment: thymocyte proliferation co-stimulated with Con A and/or IL-1α (FIG. 2); type: cell-based, Balb/C mice; conditions: three dose levels
Procedure: The thymocytes were obtained from normal female Balb/C mice and stimulated with Concanavalin A (Con A) and/or interleukin-1 alpha (L-1α). Drugs were added to the cell cultures two hours before activation with Con A and/or IL-1α.
This example illustrates a comparison of three dose levels of inventive compounds nos. 1808 and 1906 and no drug control to inhibit thymocyte proliferation. The thymocytes were obtained from normal female Balb/C mice and co-stimulated with Concanavalin A (Con A) and/or IL-1α (interleukin-1 alpha). The thymuses were dissociated and plated into 96-well plates at a density of 2×10^5 cells/well. Dilutions of Con A and/or IL-1α were added to the wells and the cells were incubated for 4 days at 37° C. Drugs were added to the cell cultures two hours before activation with Con A and/or IL-1α. On day 4, the cells were pulsed with tritiated thymidine and allowed to incubate an additional 4 hrs. The cells were harvested and counted.

Ramos B-cell tumor line = experiment: B-cell proliferation, Ramos line stimulated with anti-mu or PMA (FIG. 3); type: cell-based, human; conditions: 250 μM, anti-mu or PMA (5 nM)
Procedure: A Ramos […] tumor line was treated with 250 μM 1808 or 1605 for one hour prior to stimulation of proliferation with anti-mu antibody or phorbol myristic acid (PMA, 5 nM). One day later, proliferation was measured with tritiated thymidine.
This example illustrates a comparison of inventive compounds nos. 1605 and 1808 for inhibition of B-cell proliferation. A Ramos B-cell tumor line was treated with 250 μM 1808 or 1605 for one hour prior to stimulation of proliferation with anti-mu antibody or PMA (5 nM). One day later, proliferation was measured with tritiated thymidine.

human stromal cells = experiment: PDGF-induced proliferation of human stromal cells (FIG. 4); type: cell-based; conditions: PDGF-BB 50 ng/ml
Procedure: Human stromal cells were starved in serum-free media for 24 hours and then stimulated with 50 ng/ml of PDGF-BB. The drugs were added at various indicated concentrations one hour prior to PDGF stimulation. Tritiated thymidine was added for 24 hrs at the time of PDGF stimulation to measure cellular proliferation. Background counts were approximately 5% of control levels.
This example illustrates a comparison of inventive compounds nos. 1605, 1808 and 1906 on PDGF-induced (platelet derived growth factor) proliferation of human stromal cells. Human stromal cells were starved in serum-free media for 24 hours and then stimulated with 50 ng/ml of PDGF-BB. The drugs were added at various indicated concentrations one hour prior to PDGF stimulation. Tritiated thymidine was added for 24 hours at the time of PDGF stimulation to measure cellular proliferation. Background counts were approximately 5% of control levels.

[6] = tested on: U937 cells; human umbilical vein endothelial cells (HUVEC); experiment: adhesion of U937 cells to TNF-α activated HUVEC (FIG. 5); type: cell-based; conditions: TNF-α 20 ng/ml, 12 hours
Procedure: HUVEC cells were activated with 20 ng/ml of TNF for 12 hrs. Drug was added to each culture (except for controls) one hour prior to adding TNF. U937 cells, preloaded with the fluorescent dye BCECF, were added to each culture well and then washed. Cell adhesion was determined on a fluorescence plate reader, showing a decrease in cell adhesion caused by all three drugs in a dose dependent fashion.
This example illustrates a comparison of the effects of inventive compounds nos. 1605, 1808 and 1906 to inhibit adhesion of U937 cells to activated human umbilical vein endothelial cells (HUVEC). HUVEC cells (4000/ well, seeded 72 hours in advance) were activated with 20 ng/ml of TNF-α for 12 hours. Drug was added to the HUVEC (except for controls) one hour prior to adding TNF-α. U937 cells, preloaded with the fluorescent dye BCECF, were added to each culture well and then washed twice with PBS. Cell adhesion was determined by measuring the fluorescence of adhering U937 cells on a fluorescence plate reader.

thymocytes [7] = experiment: murine thymocyte proliferation assay co-stimulated by ConA and IL-2 (FIGS. 7A-7E); type: cell-based, Balb/C mice; conditions: Mus musculus, FIG. 7A
Description: This example illustrates dose response curves used to generate 50% inhibition concentrations (IC50) for inventive compounds nos. 1410, 1439, 1541, 1553, 1553S, 1560, 1565, 2548R, 2548S and 2562 in a murine thymocyte proliferation assay, co-stimulated by Concanavalin A (ConA) and interleukin-2 alpha (IL-2). ConA, used to activate the T-cell receptor (TCR), along with IL-2 co-stimulation, induces T-cell proliferation and differentiation. Thymuses, obtained from normal, female Balb/C mice, were dissociated and plated into 96-well plates at a density of 2×10^5 cells/well. ConA (0.25 mg/ml) and IL-2 (15 U/ml) were added to the wells. The cells were incubated for 4 days at 37° C. On day 4, the cells were pulsed with tritiated thymidine and incubated for an additional 4 hours. The amount of tritiated thymidine incorporated by the harvested cells was determined in a liquid scintillation counter. Doses of inventive compounds (shown in FIGS. 7A-7E) were added two hours prior to ConA and IL-2 activation. Background counts were less than 200 cpm. Results obtained, illustrate the ability of the inventive compounds to inhibit thymocyte proliferation and activation. In FIG. 7A, inventive compounds nos. […] FIG. 7B presents additional data for compound no. 1410 and 1553S in this assay. […] FIG. 7C reports assay results for inventive compounds nos. 1439, 1541, 1560 and 1565. […] FIGS. 7D and 7E illustrate assay results for inventive compounds nos. 1541, 1553, 1560 and 1565 (FIG. 7D) and 2562, […] (FIG. 7E). As is true of other inventive compounds tested, all these compounds represented in FIGS. 7D and 7E inhibit thymocyte proliferation. […] 1541, 1553, 1560, 1565, 2562, 2548R and 2548S, respectively.

[8] = tested on: LPS-induced TNF release in whole human blood; experiment: LPS-induced TNF release in whole human blood (FIG. 14); type: cell-based; conditions: LPS 10 ng/ml, read-out: inhibition of TNF-α induction
Procedure: This example illustrates inhibitive effects of the inventive compounds on LPS-induced TNF release. Data collected is reported as percent inhibition of LPS induced TNF release in whole human blood as compared with control values of TNF release.
In this assay, whole blood was collected from a healthy human donor into Vacutainer tubes containing ACD citrate anti-coagulant. Compounds to be tested were diluted in RPMI medium and added (5 μl) to tubes containing whole blood (225 μl). The tubes were mixed and incubated for a maximum of 1 hour at 37° C. LPS Salmonella abortus equi was diluted in RPMI and added to samples at 20 μl per tube (10 ng/ml final concentration). The prepared tubes were mixed and incubated for 4-6 hours at 37° C. The reaction was terminated by adding 750 μl of RPMI to each tube, then centrifuged to remove cells. Supernatants are collected and stored overnight at 4° C. Supernatant samples are assayed for TNF release using commercial immunoassay kits.

[9] = tested on: normal human bone marrow stromal cells (MSC); experiment: human bone marrow stromal cell (MSC) proliferation in response to PDGF BB and IL-1α; type: cell-based; conditions: Table III, PDGF BB 50 ng/ml and IL-1α 10 ng/ml
Procedure: This example illustrates the effects of inventive compounds nos. 1114, 1413, 1560, 1565, 1594, 2518, 2548R, 2548S and 3503 as effective inhibitors of normal human bone marrow stromal cells (MSC) proliferation in response to Platelet Derived Growth Factor BB (PDGF B) and IL-1α (50 and 10 ng/ml, respectively).
MSC were obtained and malintained in exponential growth, released from a growth plate with trypsin and plated into 96 well tissue culture plates in the presence of Fibroblast Growth Factor (FGFβ) for 48 hours. Growth media were removed and the cells were washed once with serum free media. The cells were then incubated 20-24 hours in serum free media.
After incubation, inventive compounds were added to the cells at the appropriate concentration and then the cells again incubated for 1 hour. PDGF B and IL-1α were added to the cells along with 3H-thymidine and the cells again incubated for an additional 24 hours.
After 24 hours of incubation, the cells were then harvested to assess incorporation of ^3 H-thymidine into DNA (proliferation). From each harvested cell culture, an IC-50 for each inventive compound tested was determined. Therefore, a lower reported IC-50 value is indicatilve of greater activity of the invention compounds in inhibiting MSC proliferation. Table III illustrates IC-50 values (in μM) for invention compounds inhibiting MSC proliferation at very low concentrations of compound.

thymocytes [10] = experiment: IL-2 (ConA co-stimulated) induced proliferation of thymocytes; type: cell-based, mice; conditions: Mus musculus, Thymocyte, 96 h; Table II; ConA 0.25 ug/ml / IL2 20 ng/ml, 4 days
Procedure: This example illustrates the effects of inventive compounds nos. 1105, 1114, 1413, 1439, 1594, 2518, 2548R, 2548S, 2562 and 3503 as effective inhibitors of IL-2 induced proliferation of thymocytes. Single cell suspensions of thymus gland cells obtained from 4-6 week old mice were prepared. Two-hundred thousand cells were plated into individual wells of flat-bottom 96-well plates in RPMI-1640-10% FCS medium. The invention compounds were then added to the wells at varying concentrations and the cells incubated for 1-2 hours at 37° C.
Following this pre-incubation a mixture of Concanavalin A (ConA) and Interleukin-2 (IL2) was added to the experimental wells at a final concentration of (0.25 ug/ml ConA)/(20 ng/ml IL2). Appropriate positive and negative controls were set up on each plate. Each variable was set up in quadruplicate.
The plates were incubated for 4 days at 37° C. in a humidified CO2 incubator. On day 4 the wells were pulsed with 1 μCi of tritiated thymidine(3H-TdR) and the plates incubated for an additional 4 hours. The plates were then harvested and the incorporation of 3H-TdR was determined in a liquid scintillation counter. From the CPM obtained from each experimental well an IC-50 for each inventive compound tested was determined. Therefore, a lower reported IC-50 value is indicative of greater inhibition of IL-2-induced proliferation of thymocytes. Table II illustrates IC-50 values (in μM) for inventive compounds inhibiting proliferation at very low concentrations of compound.

Cn1c(=O)n(CCCCCCCC2CO2)c(=O)c2c1ncn2COC(=O)C(C)(C)C (centres unmarked) [Compound 1409, 1-(8,9-Oxidononyl)-3-methyl-7-methylpivaloylxanthine]
cytotoxic effects (Balb/3T3 cells [1]): without exhibiting cytotoxic effects | inhibition of Balb/3T3 proliferation (Balb/3T3 cells [2]): inhibit Balb/3T3 proliferation

Cn1ccc(=O)n(CCCCC2CO2)c1=O (centres unmarked) [Compound 1808, 3-(5,6-Oxidohexyl)-1-methyluracil]
mean fluorescence (VCAM surface expression) [3]: Mean fluorescence levels were decreased | activity in mixed lymphocyte reaction (immune modulation) [4]: demonstrated activity | potency in mixed lymphocyte reaction compared with PTX ([4]; PTX not shown on graph): more potent than PTX | inhibition of thymocyte proliferation (thymocytes [5]): inhibited thymocyte proliferation is a dose-dependent fashion | inhibition of B-cell proliferation (Ramos B-cell tumor line): inhibited proliferation | inhibition of PDGF-induced proliferation (human stromal cells): inhibited PDGF-induced stimulation in a dose response fashion | inhibition of U937 cell adhesion to HUVEC [6]: decrease in cell adhesion induced by TNF-α in a dose dependent fashion | IC50 (thymocytes [7]): 99 µM

Cn1cnc2c1c(=O)n(CCCCCCCCCCC1CO1)c(=O)n2C (centres unmarked) [Compound 2518, 1-(11,12-Oxidodecyl)-3,7-dimethylxanthine]
inhibition at 50 µM [8]: 35% | IC50 [9]: 16.7 µM | IC50 (thymocytes [10]): 3.4 µM

CCCCCCCCC1OC1CCCCCCCCn1c(=O)c2c(ncn2C)n(C)c1=O (centres unmarked) [Compound 2541, 1-(9,10-Oxidooctadecyl)-3,7-dimethylxanthine]
inhibition at 50 µM [8]: 25%
